# Data as given in US9539223B2, “Methods for treating bacterial infections” (Neoculi Pty Ltd., priority 2013, dated 2017).
# How the values were obtained:
# [1] = tested on: vancomycin-resistant Enterococcus spp. (VRE); assay: Minimum inhibitory concentration assay (CLSI), VRE isolates; type: cell-based
# Method: Minimum inhibitory concentration tests were performed according to CLSI Standards (CLSI 2008). […] The solutions were then serially diluted across the row, leaving 2 columns for positive and negative controls. A bacterial suspension was prepared by adding fresh colonies obtained from an overnight culture on Sheep Blood Agar (SBA) to a 9.1 g/L saline solution. This suspension was adjusted to a concentration of between 4×10^8 and 5×10^8 CFU/mL. Concentration of the suspension was determined by measuring optical density (OD) using a spectrophotometer at a wavelength of 600 nm where the correct concentration was determined to have an optical density of between 1.00 and 1.20. One milliliter of this suspension was added to 9 mL of saline before being added to all wells, excluding the negative control wells, in 10 μL volumes giving a final concentration of between 4×10^5 and 5×10^5 CFU/mL in each well. The tests were then incubated for 24 hours at 37° C. and then assessed both visually and using OD readings from a microplate reader at a wavelength of 600 nm. These tests were performed in duplicate but repeated if discrepancies were observed.
# The minimum inhibitory concentration (MIC) was determined to be the lowest concentration of antibiotic that prevented growth of bacteria both visually and using OD readings. […]
# E. faecalis USA01 [2] = assay: MBC test (CLSI), non-VRE E. faecalis isolate
# E. faecalis USA01 [3] = assay: Kill kinetics assay, E. faecalis USA01; type: cell-based, Enterococcus faecalis
# Method: S. aureus KC01 and E. faecalis USA01, not determined to be MRSA or VRE, respectively, were grown overnight on Columbia SBA at 37° C. A few colonies of bacteria were then suspended in CAMHB (cation-adjusted Mueller Hinton broth) and adjusted to OD600 of 0.08 to 0.10. The bacterial suspension was diluted 1:10. […] The tubes were incubated at 37° C., with constant shaking. In order to determine the number of viable bacteria present at various time points, a 100 μL aliquot was removed from each tube and diluted. Then, 100 μL of each dilution were spread onto colony count agar, in duplicate, and incubated for 48 h at 37° C. After 24 h the numbers of colonies present on each plate were counted and therefore the number of viable bacteria present in the original suspension enumerated. Plates were re-checked after 48 hours.
# [4] = Precipitation of NCL812 in assay media; type: physicochemical
# S. aureus ATCC 29213 = assay: ATP release assay (CellTiter-Glo); type: cell-based, Staphylococcus aureus; conditions: at the MIC ([…] μg/ml), 30 min exposure
# Source text: The CellTiter-Glo Luminescent Cell Viability Assay (Promega) was utilized to measure the leakage of ATP from bacteria. […] The negative control received 2% DMSO, which represented the final DMSO concentration in each assay. […] Results were expressed as ATP concentration released to the medium (μM).
# MRSA isolates = assay: MBC test (CLSI), MRSA isolates; type: cell-based, Staphylococcus aureus
# Method: There was an obvious reduction in the number of bacteria with increasing concentration, but growth was present compared with no growth for S. aureus. […] Each MBC test was performed in duplicate.
# [5] = tested on: Staphylococcus pseudintermedius; assay: MIC testing (CLSI), S. pseudintermedius isolates; type: cell-based
compound,measurement,setting,value
"N=C(N/N=C/c1ccc(Cl)cc1)N/N=C/c1ccc(Cl)cc1 [NCL812, 1,2-bis[(E)-(4-chlorophenyl)methylideneamino]guanidine]",MIC50,[1],4 µg/mL
same,MIC90,[1],4 µg/mL
same,MBC test: Number of Bacteria Growing after 24 hours per ml of sample,E. faecalis USA01 [2]; 4 μg/ml,488 CFU/ml
same,MBC test: growth on Sheep Blood Agar,E. faecalis USA01 [2]; 4 μg/ml,+
same,MBC test: growth on Sheep Blood Agar,E. faecalis USA01 [2]; 8 μg/ml,+
same,MBC test: growth on Sheep Blood Agar,E. faecalis USA01 [2]; 16 μg/ml,+
same,MBC test: Number of Bacteria Growing after 24 hours per ml of sample,E. faecalis USA01 [2]; 32 μg/ml,7 CFU/ml
same,MBC test: growth on Sheep Blood Agar,E. faecalis USA01 [2]; 32 μg/ml,+
same,MBC test: Number of Bacteria Growing after 24 hours per ml of sample,E. faecalis USA01 [2]; 64 μg/ml,1 CFU/ml
same,MBC test: growth on Sheep Blood Agar,E. faecalis USA01 [2]; 64 μg/ml,+
same,MBC test: growth on Sheep Blood Agar,E. faecalis USA01 [2]; […],+
same,rise in bacterial numbers,"E. faecalis USA01 [3]; 32 and 64 μg/mL, until the 6 h time point",~1 log10
same,reduction in CFU/mL compared to the growth control,E. faecalis USA01 [3]; 2 h,2 log10
same,reduction in CFU/mL compared to the original bacterial numbers,E. faecalis USA01 [3]; 2 h,greater than 1 log10
same,bacterial numbers compared to the growth control,"E. faecalis USA01 [3]; 24 h, all concentrations",increased to almost the same level as the growth control
same,Precipitation of NCL812 observed at,[4]; MIC plates in Mueller Hinton II Broth without inoculum,≥ 8 µg/mL
same,precipitation observed at,"[4]; Mueller Hinton broth II (DNA and RNA synthesis assays), MIC […] μg/ml",4 to 8 fold the MIC
same,maximal release of ATP,S. aureus ATCC 29213,0.33 µM
same,MBC test: growth on Sheep Blood Agar,"MRSA isolates; MRSA 1, 4 μg/ml",0
same,MBC test: growth on Sheep Blood Agar,"MRSA isolates; MRSA 1, 8 μg/ml",0
same,MBC test: growth on Sheep Blood Agar,"MRSA isolates; MRSA 1, 16 μg/ml",0
same,MBC test: growth on Sheep Blood Agar,"MRSA isolates; MRSA 1, 32 μg/ml",0
same,MBC test: growth on Sheep Blood Agar,"MRSA isolates; MRSA 3, 4 μg/ml",0
same,MBC test: growth on Sheep Blood Agar,"MRSA isolates; MRSA 3, 16 μg/ml",0
same,MBC test: growth on Sheep Blood Agar,"MRSA isolates; MRSA 3, 32 μg/ml",0
same,MBC test: growth on Sheep Blood Agar,"MRSA isolates; MRSA 4, 4 μg/ml",0
same,MBC test: growth on Sheep Blood Agar,"MRSA isolates; MRSA 4, 8 μg/ml",0
same,MBC test: growth on Sheep Blood Agar,"MRSA isolates; MRSA 4, 16 μg/ml",0
same,MBC test: growth on Sheep Blood Agar,"MRSA isolates; MRSA 4, 32 μg/ml",0
same,MBC test: growth on Sheep Blood Agar,"MRSA isolates; MRSA 5, 4 μg/ml",0
same,MBC test: growth on Sheep Blood Agar,"MRSA isolates; MRSA 5, 8 μg/ml",0
same,MBC test: growth on Sheep Blood Agar,"MRSA isolates; MRSA 5, 16 μg/ml",0
same,MBC test: growth on Sheep Blood Agar,"MRSA isolates; MRSA 5, 32 μg/ml",0
same,MBC test: growth on Sheep Blood Agar,"MRSA isolates; MRSA 6, 4 μg/ml",0
same,MBC test: growth on Sheep Blood Agar,"MRSA isolates; MRSA 6, 8 μg/ml",0
same,MBC test: growth on Sheep Blood Agar,"MRSA isolates; MRSA 6, 16 μg/ml",0
same,MBC test: growth on Sheep Blood Agar,"MRSA isolates; MRSA 6, 32 μg/ml",0
same,MBC test: growth on Sheep Blood Agar,"MRSA isolates; MRSA 7, 4 μg/ml",0
same,MBC test: growth on Sheep Blood Agar,"MRSA isolates; MRSA 7, 16 μg/ml",0
same,MBC test: growth on Sheep Blood Agar,"MRSA isolates; MRSA 7, 32 μg/ml",0
same,MBC test: growth on Sheep Blood Agar,"MRSA isolates; MRSA 8, 8 μg/ml",0
same,MBC test: growth on Sheep Blood Agar,"MRSA isolates; MRSA 8, 16 μg/ml",0
same,MBC test: growth on Sheep Blood Agar,"MRSA isolates; MRSA 8, 32 μg/ml",0
same,MBC test: growth on Sheep Blood Agar,"MRSA isolates; MRSA 9, 4 μg/ml",0
same,MBC test: growth on Sheep Blood Agar,"MRSA isolates; MRSA 9, 8 μg/ml",0
same,MBC test: growth on Sheep Blood Agar,"MRSA isolates; MRSA 9, 16 μg/ml",0
same,MBC test: growth on Sheep Blood Agar,"MRSA isolates; MRSA 9, 32 μg/ml",0
same,MBC test: growth on Sheep Blood Agar,"MRSA isolates; MRSA 10, 4 μg/ml",0
same,MBC test: growth on Sheep Blood Agar,"MRSA isolates; MRSA 10, 8 μg/ml",0
same,MBC test: growth on Sheep Blood Agar,"MRSA isolates; MRSA 10, 16 μg/ml",0
same,MBC test: growth on Sheep Blood Agar,"MRSA isolates; MRSA 10, 32 μg/ml",0
same,MBC test: growth on Sheep Blood Agar,"MRSA isolates; MRSA 11, 8 μg/ml",0
same,MBC test: growth on Sheep Blood Agar,"MRSA isolates; MRSA 11, 16 μg/ml",0
same,MBC test: growth on Sheep Blood Agar,"MRSA isolates; MRSA 11, 32 μg/ml",0
same,MBC test: growth on Sheep Blood Agar,"MRSA isolates; MRSA 12, 4 μg/ml",0
same,MBC test: growth on Sheep Blood Agar,"MRSA isolates; MRSA 12, 16 μg/ml",0
same,MBC test: growth on Sheep Blood Agar,"MRSA isolates; MRSA 12, 32 μg/ml",0
same,MBC test: growth on Sheep Blood Agar,"MRSA isolates; MRSA 13, 4 μg/ml",0
same,MBC test: growth on Sheep Blood Agar,"MRSA isolates; MRSA 13, 8 μg/ml",0
same,MBC test: growth on Sheep Blood Agar,"MRSA isolates; MRSA 13, 16 μg/ml",0
same,MBC test: growth on Sheep Blood Agar,"MRSA isolates; MRSA 13, 32 μg/ml",0
same,MBC test: growth on Sheep Blood Agar,"MRSA isolates; MRSA 14, 4 μg/ml",0
same,MBC test: growth on Sheep Blood Agar,"MRSA isolates; MRSA 14, 8 μg/ml",0
same,MBC test: growth on Sheep Blood Agar,"MRSA isolates; MRSA 14, 16 μg/ml",0
same,MBC test: growth on Sheep Blood Agar,"MRSA isolates; MRSA 14, 32 μg/ml",0
same,MBC test: growth on Sheep Blood Agar,"MRSA isolates; MRSA 516, 4 μg/ml",0
same,MBC test: growth on Sheep Blood Agar,"MRSA isolates; MRSA 516, 8 μg/ml",0
same,MBC test: growth on Sheep Blood Agar,"MRSA isolates; MRSA 516, 16 μg/ml",0
same,MBC test: growth on Sheep Blood Agar,"MRSA isolates; MRSA 516, 32 μg/ml",0
same,MBC test: growth on Sheep Blood Agar,"MRSA isolates; MRSA 570, 4 μg/ml",0
same,MBC test: growth on Sheep Blood Agar,"MRSA isolates; MRSA 570, 8 μg/ml",0
same,MBC test: growth on Sheep Blood Agar,"MRSA isolates; MRSA 570, 16 μg/ml",0
same,MBC test: growth on Sheep Blood Agar,"MRSA isolates; MRSA 570, 32 μg/ml",0
same,MBC test: growth on Sheep Blood Agar,"MRSA isolates; MRSA 580, 4 μg/ml",0
same,MBC test: growth on Sheep Blood Agar,"MRSA isolates; MRSA 580, 8 μg/ml",0
same,MBC test: growth on Sheep Blood Agar,"MRSA isolates; MRSA 580, 16 μg/ml",0
same,MBC test: growth on Sheep Blood Agar,"MRSA isolates; MRSA 580, 32 μg/ml",0
same,MBC test: growth on Sheep Blood Agar,"MRSA isolates; MRSA 606, 4 μg/ml",0
same,MBC test: growth on Sheep Blood Agar,"MRSA isolates; MRSA 606, 8 μg/ml",0
same,MBC test: growth on Sheep Blood Agar,"MRSA isolates; MRSA 606, 16 μg/ml",0
same,MBC test: growth on Sheep Blood Agar,"MRSA isolates; MRSA 606, 32 μg/ml",0
same,MBC test: growth on Sheep Blood Agar,"MRSA isolates; MRSA 610, 4 μg/ml",0
same,MBC test: growth on Sheep Blood Agar,"MRSA isolates; MRSA 610, 16 μg/ml",0
same,MBC test: growth on Sheep Blood Agar,"MRSA isolates; MRSA 610, 32 μg/ml",0
same,MIC50,"[5]; Staphylococcus pseudintermedius, 23 S. pseudintermedius isolates",2 µg/mL
same,susceptibility based on MICs,[5]; all 23 isolates (MSSP and MRSP),susceptible
